The values below come from US6335350B1, “Acetamide and substituted acetamide-containing thiourea inhibitors of herpes viruses” (American Home Products Corporation, priority 1998, dated 2002).

Experiment [1] deals with HCMV wild-type. As to the kind of experiment: HCMV yield assay. Particulars: human foreskin fibroblasts; for IC50: Human betaherpesvirus 5, Fibroblast, read-out: IC50 Ug/ml HCMV. In kind it is cell-based, human cytomegalovirus. As to the method: Yield assay. Monolayer cultures of human foreskin fibroblasts are infected with HCMV wild-type, typically at a multiplicity of infection equal to 0.2, in the presence of inhibitor compound (varying concentrations). At three days post-infection, total virus produced in these cultures (i.e. virus yield) is assessed by harvesting and titering the virus in 12-well plates of cultured human foreskin fibroblasts (done in the absence of inhibitor). Plaques are quantified at 2 weeks post-infection. An inhibitor of HCMV is identified by the reduction in titer of virus yield in the presence, compared to the titer in the absence of compound. In this assay, the relative anti-HCMV activity of an inhibitor is typically determined by calculating the IC50 or IC90 value, that is, the amount of compound required to reduce the virus yield by 50% or 90%, respectively. Table I describes IC50 data for compounds tested against HCMV.

The subject of experiment [2] is HSV-1. As to the kind of experiment: HSV Antiviral (ELISA) Assay. In kind it is cell-based, herpes simplex virus type 1. Particulars: Vero cells, HSV-1; for IC50: Human alphaherpesvirus 1, Vero, read-out: IC50 Ug/ml HSV. The procedure:
Vero cells (ATCC #CCL-81) are plated on 96-well tissue culture plates at 3.5×10^4 cells per 100 μl tissue culture DMEM (Dulbecco's modified Eagle media) supplemented with 2% fetal bovine serum (FBS) in each well. After overnight incubation @ 37° C. (in 5% CO2) and 30 minutes prior to infection with HSV-1 (multiplicity of infection equal to 0.006), cells are either untreated, or treated with test compound (multiple concentrations) or reference standard drug control. After approximately 24 hours post-infection incubation @ 37° C. (in 5% CO2), cells are fixed for ELISA assay. The primary antibody is murine anti-HSV glycoprotein D monoclonal primary antibody and the secondary antibody is goat anti-mouse IgG linked to β-galactosidase. Thus the extent of viral replication is determined by assessing β-galactosidase activity by quantifying the generation of the 4-methyl umbelliferone fluorescent cleavage product after addition of the methyl umbelliferyl-β-D-galactoside (Sigma #M1633) substrate on a microfluorimeter (365 nm for excitation and 450 nm for emission). Antiviral activity (IC50) of the test compound is determined by comparing the flourescence obtained in absence of compound to that obtained in the presence of compound.
(In general: ELISA stands for enzyme-linked immunosorbent assay.)

The subject of experiment [3] is VZV strain Ellen. In words: VZV Antiviral (ELISA) Assay. The format is cell-based, varicella-zoster virus. The following applies: Human alphaherpesvirus 3, Fibroblast, human foreskin fibroblast cells; for IC50: read-out: IC50 Ug/ml VZV; for inhibition at 10 µg/mL: read-out: % inhibition 10 ug/ml VZV, 10 ug/ml. As to the method: For the generation of stock VZV to be used in the assay, VZV strain Ellen (ATCC #VR-1367) is used to infect human foreskin fibroblast (HFF) cells at low multiplicity (less than 0.1) and incubated overnight at 37° C. in 5% CO2. After the overnight incubation, the mixture of uninfected and VZV-infected HFF infected cells are then harvested and added to each well of 96-well plates (3.5×10^4 cells in 100 μl DMEM supplemented with 2% FBS) which contain test compound or the reference standard drug control (in 100 μl DMEM supplemented with 2% FBS per well). These cells are incubated for three days at 37° C. in 5% CO2, then fixed for ELISA assay. The primary antibody is murine anti-VZV glycoprotein II monoclonal antibody (Applied Biosystems, Inc. #13-145-100) and the secondary antibody is goat anti-mouse IgG linked to β-galactosidase. Thus the extent of viral replication is determined by assessing β-galactosidase activity by quantifying the generation of the 4-methyl umbelliferone fluorescent cleavage product after addition of the methyl umbelliferyl-β-D-galactoside (Sigma #M1633) substrate on a microfluorimeter (365 nm for excitation and 450 nm for emission). Antiviral activity (IC50) of the test compound is determined by comparing the flourescence obtained in absence of compound to that obtained in the presence of compound.

≈ marks a conversion by molar mass, not a printed value. A value given as a limit tells only on which side of the number the result lay.

As for `COc1cc(OC)c(NC(=S)Nc2ccc(N(C)C(C)=O)cc2)cc1Cl` [Example 99, N-{4-[3-(5-Chloro-2,4-dimethoxy-phenyl)-thioureido]-phenyl}-N-methyl-acetamide], the IC50 in experiment [1] is more than 50 µg/mL; in experiment [2] it was 50 µg/mL (≈ 127 µM); in experiment [3], more than 10 µg/mL. Further, the inhibition at 10 µg/mL in experiment [3] is 2%.

With `COc1cc(OC)c(NC(=S)Nc2cccc(NC(C)=O)c2)cc1Cl` [Example 100, N-{3-[3-(5-Chloro-2,4-dimethoxy-phenyl)-thioureido]-phenyl}-acetamide], the values for the IC50 in experiment [1], in experiment [2] and in experiment [3] were more than 50 µg/mL, 40 µg/mL (≈ 105 µM) and more than 10 µg/mL, respectively. For the same molecule, in experiment [3], the inhibition at 10 µg/mL is 19%.

For `COc1ccc(NC(=S)Nc2ccc(NC(C)=O)cc2)c(OC)c1` [Example 103, N-{4-[3-(2,4-Dimethoxy-phenyl)-thioureido]-phenyl}-acetamide], the IC50 in experiment [1] is more than 50 µg/mL; in experiment [2], 25 µg/mL (≈ 72.4 µM); in experiment [3], more than 10 µg/mL. For the same molecule, in experiment [3], the inhibition at 10 µg/mL stood at 28%.

Take `COc1ccc(NC(=S)Nc2ccc(NC(C)=O)cc2)cc1` [Example 104, N-{4-[3-(4-Methoxy-phenyl)-thioureido]-phenyl}-acetamide]: the IC50 in experiment [1] was more than 50 µg/mL; in experiment [2], more than 50 µg/mL; in experiment [3] it was more than 10 µg/mL. In experiment [3], the inhibition at 10 µg/mL turned out to be 8%.

Take `COc1ccccc1NC(=S)Nc1ccc(NC(C)=O)cc1` [Example 105, N-{4-[3-(2-Methoxy-phenyl)-thioureido]-phenyl}-acetamide]: the IC50 in experiment [1] was more than 50 µg/mL; in experiment [2], more than 50 µg/mL; in experiment [3], more than 10 µg/mL. Besides, the inhibition at 10 µg/mL in experiment [3] was 32%.

With `COc1ccc(NC(=S)Nc2ccc(NC(C)=O)cc2)cc1Cl` [Example 106, N-{4-[3-(3-Chloro-4-methoxy-phenyl)-thioureido]-phenyl}-acetamide], the IC50 in experiment [1] was 7 µg/mL (≈ 20 µM); in experiment [2], 3 µg/mL (≈ 8.58 µM); in experiment [3], more than 10 µg/mL. Also, in experiment [3], the inhibition at 10 µg/mL came out at 20%.

In the case of `COc1ccc(Cl)cc1NC(=S)Nc1ccc(NC(C)=O)cc1` [Example 107, N-{4-[3-(5-Chloro-2-methoxy-phenyl)-thioureido]-phenyl}-acetamide], the values for the IC50 in experiment [1], in experiment [2] and in experiment [3] were more than 50 µg/mL, more than 50 µg/mL and more than 10 µg/mL, respectively. The inhibition at 10 µg/mL in experiment [3] is 20%.

Turning to `CC(=O)Nc1ccc(NC(=S)Nc2cc(Cl)c(O)c(Cl)c2)cc1` [Example 108, N-{4-[3-(3,5-Dichloro-4-hydroxy-phenyl)-thioureido]-phenyl}-acetamide], the IC50 in experiment [1] was more than 50 µg/mL; in experiment [2], 50 µg/mL (≈ 135 µM); in experiment [3] it was more than 10 µg/mL. In experiment [3], the inhibition at 10 µg/mL was found to be 28%.

Turning to `COc1c(Cl)cc(NC(=S)Nc2ccc(NC(C)=O)cc2)cc1Cl` [Example 109, N-{4-[3-(3,5-Dichloro-4-methoxy-phenyl)-thioureido]-phenyl}-acetamide], the IC50 in experiment [1] is 0.4 µg/mL (≈ 1.04 µM); in experiment [2], more than 10 µg/mL; in experiment [3] it was more than 10 µg/mL. Also, the inhibition at 10 µg/mL in experiment [3] worked out at 27%.

For the molecule `COc1cc(NC(=S)Nc2ccc(NC(C)=O)cc2)c(OC)cc1Cl` [Example 110, N-{4-[3-(4-Chloro-2,5-dimethoxy-phenyl)-thioureido]-phenyl}-acetamide], the IC50 was 30 µg/mL (≈ 79 µM) in experiment [1], 12 µg/mL (≈ 31.6 µM) in experiment [2] and more than 10 µg/mL in experiment [3]. Moreover, in experiment [3], the inhibition at 10 µg/mL is 25%.

As to `CC(=O)Nc1ccc(NC(=S)Nc2cc(C(F)(F)F)ccc2Cl)cc1` [Example 111, N-{4-[3-(2-Chloro-5-trifluoromethyl-phenyl)-thioureido]-phenyl}-acetamide], the values for the IC50 in experiment [1], in experiment [2] and in experiment [3] were 12 µg/mL (≈ 30.9 µM), 15 µg/mL (≈ 38.7 µM) and more than 10 µg/mL, respectively. Further, the inhibition at 10 µg/mL in experiment [3] was 51%.

As to `CC(=O)Nc1ccc(NC(=S)Nc2ccc(Cl)c(C(F)(F)F)c2)cc1` [Example 112, N-{4-[3-(4-Chloro-3-trifluoromethyl-phenyl)-thioureido]-phenyl}-acetamide], the IC50 in experiment [1] was 3 µg/mL (≈ 7.74 µM); in experiment [2] it was 5 µg/mL (≈ 12.9 µM); in experiment [3], more than 10 µg/mL. Moreover, the inhibition at 10 µg/mL in experiment [3] was 55%.

Consider `CC(=O)Nc1ccc(NC(=S)Nc2ccc(OC(=O)c3ccccc3)cc2O)cc1` [Example 113, Benzoic acid 4-[3-(4-acetylamino-phenyl)-thioureido]-3-hydroxy-phenylester], for which the IC50 in experiment [1] is 45 µg/mL (≈ 107 µM); in experiment [2] it was 50 µg/mL (≈ 119 µM); in experiment [3], more than 10 µg/mL. Moreover, the inhibition at 10 µg/mL in experiment [3] was 39%.

For the molecule `CC(=O)Nc1ccc(NC(=S)Nc2cccc([N+](=O)[O-])c2)cc1` [Example 124, N-{4-[3-(3-Nitro-phenyl)-thioureido]-phenyl}-acetamide], the IC50 in experiment [1] is 50 µg/mL (≈ 151 µM); in experiment [2], 50 µg/mL (≈ 151 µM); in experiment [3] it was more than 10 µg/mL. Also, the inhibition at 10 µg/mL in experiment [3] was determined as 0%.

With `CC(=O)Nc1ccc(NC(=S)Nc2cc(Cl)ccc2O)cc1` [Example 126, N-{4-[3-(5-Chloro-2-hydroxy-phenyl)-thioureido]-phenyl}-acetamide], the IC50 in experiment [1] was 20 µg/mL (≈ 59.6 µM); in experiment [2], 30 µg/mL (≈ 89.3 µM); in experiment [3] it was more than 10 µg/mL. For the same molecule, in experiment [3], the inhibition at 10 µg/mL is 23%.

On to `CC(=O)Nc1ccc(NC(=S)Nc2cc(C)c(O)c(Cl)c2)cc1` [Example 128, N-{4-[3-(3-Chloro-4-hydroxy-5-methyl-phenyl)-thioureido]-phenyl}-acetamide], for which the IC50 in experiment [1] is 15 µg/mL (≈ 42.9 µM); in experiment [2] it was 15 µg/mL (≈ 42.9 µM); in experiment [3] it was more than 10 µg/mL. Also, the inhibition at 10 µg/mL in experiment [3] worked out at 35%.

As for `CC(=O)Nc1ccc(NC(=S)Nc2cc(Cl)c(O)c(Cl)c2C)cc1` [Example 129, N-{4-[3-(3,5-Dichloro-4-hydroxy-2-methyl-phenyl)-thioureido]-phenyl}-acetamide], the IC50 in experiment [1] was more than 50 µg/mL; in experiment [2], more than 50 µg/mL; in experiment [3] it was more than 10 µg/mL. Moreover, in experiment [3], the inhibition at 10 µg/mL was determined as 29%.

On to `CC(=O)Nc1ccc(NC(=S)Nc2ccc(O)cc2O)cc1` [Example 130, N-{4-[3-(2,4-Dihydroxy-phenyl)-thioureido]-phenyl}-acetamide], for which the values for the IC50 in experiment [1], in experiment [2] and in experiment [3] were 30 µg/mL (≈ 94.5 µM), more than 50 µg/mL and more than 10 µg/mL, respectively. Further, the inhibition at 10 µg/mL in experiment [3] worked out at 30%.

With `COc1cc(OC)c(C(F)(F)F)cc1NC(=S)Nc1ccc(NC(C)=O)cc1` [Example 131, N-{4-[3-(2,4-Dimethoxy-5-trifluoromethyl-phenyl)-thioureido]-phenyl}-acetamide], the IC50 in experiment [1] is less than 50 µg/mL; in experiment [2] it was 15 µg/mL (≈ 36.3 µM); in experiment [3], more than 10 µg/mL. The inhibition at 10 µg/mL in experiment [3] turned out to be 53%.

In the case of `CC(NC(=S)Nc1ccc(NC(=O)Cc2ccccc2)cc1)c1ccc(F)cc1` (stereo not drawn) [Example 751, N-(4-{3-[1-(4-Fluoro-phenyl)-ethyl]-thioureido}-phenyl)-2-phenyl-acetamide], the IC50 in experiment [1] is more than 0.5 µg/mL; in experiment [2] it was more than 10 µg/mL.

Turning to `CCC(=O)Nc1ccc(NC(=S)NC(C)c2ccc(F)cc2)cc1` (stereo not drawn) [Example 813, N-(4-{3-[1-(4-Fluoro-phenyl)-ethyl]-thioureido}-phenyl)-propionamide], in experiment [3], the IC50 was 3.5 µg/mL (≈ 10.1 µM).

As to “N-(4-{3-[1-(4-Fluoro-phenyl)-ethyl]-thioureido}-phenyl)-acetamide [Example 744]”, the “IC50 Ug/ml HCMV” value in experiment [1] was more than 0.5 Ug/ml. The “IC50 Ug/ml HSV” value in experiment [2] is given as more than 10 Ug/ml.
